Converted amounts (≈) assume the structure as drawn.
Assays:
S. aureus = test: MIC, modified CLSI broth microdilution; assay type: cell-based, Staphylococcus aureus; settings: for MIC by the modified method versus published quality control ranges: S. aureus ATCC 29213, inoculum prepared in Diluent solution
Description: (§1) All clinical isolates were obtained from the culture collection of Eurofins Medinet Anti-Infective Services (Herndon, Va.), and represent diverse geographical regions. They were originally derived from clinical specimens and identified using standard microbiological methods (see Table 33 below for details). Escherichia coli ATCC 25922, Staphylococcus aureus ATCC 25923, S. aureus ATCC 29213, Pseudomonas aeruginosa ATCC 27853, and Enterococcus faecalis ATCC 29212 were used as quality control strains for the Enhanced MPO Solution and comparator agents to validate the modified Clinical and Laboratory Standards Institute (CLSI, formally NCCLS) broth microdilution method.
(§2) Modifications were made to the standard broth microdilution method to accommodate the rapid in vitro activity of the Enhanced MPO Solution as described below. Each antimicrobial agent and Concentrate solution was diluted in double strength cation-adjusted Mueller-Hinton Broth (CAMHB) and dispensed in mircrodilution trays. All β-hemolytic streptococci were tested in double strength CAMHB supplemented with 5% lysed horse blood. Isolates were prepared by suspending several colonies (four to six) from an overnight culture on Trypticase Soy Agar (TSA) with 5% sheep blood into sterile saline and the density adjusted to a 0.5 McFarland standard (˜10^8 CFU/ml). Standardized bacterial suspensions were further diluted in double strength Diluent solution so that approximately 5×10^5 CFU/ml was mixed with serial drug dilutions. The addition of Diluent solution to the Concentrate solution activates the enzyme system, which in turn exerts its rapid mode of action. The microdilution trays were incubated in ambient air at 35° C. for 18 to 24 h.
(§3) MIC ranges were established for the Enhanced MPO Solution by testing over 20 replicates of one lot of the Enhanced MPO Solution against S. aureus ATCC 29213 and E. coli ATCC 25922. Quality control parameters were then determined for the Enhanced MPO Solution by testing three lots of the Concentrate solution used for preparation of the final Enhanced MPO Solution formulation. Testing was performed in duplicate against S. aureus ATCC 29213 and E. coli ATCC 25922. The effects of modifying the standard broth microdilution test were also assessed with antibiotics with known quality control limits to validate the CLSI broth microdilution method.

E. coli = test: MIC, modified CLSI broth microdilution; assay type: cell-based, Escherichia coli; settings: for MIC by the modified method versus published quality control ranges: E. coli ATCC 25922, inoculum prepared in Diluent solution
Description: as §1, §2, §3

E. faecalis = test: MIC, modified CLSI broth microdilution; assay type: cell-based, Enterococcus faecalis
Description: as §1
as §2, with “The addition of Diluent solution to the Concentrate solution activates the enzyme system, which in turn exerts its rapid mode of action. The microdilution trays were incubated in ambient air at 35° C. for 18 to 24 h.” left out
as §3, with “Testing was performed in duplicate against S. aureus ATCC 29213 and E. coli ATCC 25922.” left out

E. faecium = test: MIC, modified CLSI broth microdilution; assay type: cell-based; settings: Enterococcus faecium, 22 clinical isolates
Description: (§4) Modifications were made to the standard broth microdilution method to accommodate the rapid in vitro activity of the Enhanced MPO Solution as described below. Each antimicrobial agent and Concentrate solution was diluted in double strength cation-adjusted Mueller-Hinton Broth (CAMHB) and dispensed in mircrodilution trays. All β-hemolytic streptococci were tested in double strength CAMHB supplemented with 5% lysed horse blood. Isolates were prepared by suspending several colonies (four to six) from an overnight culture on Trypticase Soy Agar (TSA) with 5% sheep blood into sterile saline and the density adjusted to a 0.5 McFarland standard (˜10^8 CFU/ml). Standardized bacterial suspensions were further diluted in double strength Diluent solution so that approximately 5×10^5 CFU/ml was mixed with serial drug dilutions. […] The microdilution trays were incubated in ambient air at 35° C. for 18 to 24 h.

S. epidermidis = test: MIC, modified CLSI broth microdilution; assay type: cell-based, Staphylococcus epidermidis
Description: as §4

S. agalactiae = test: MIC, modified CLSI broth microdilution (CAMHB with 5% lysed horse blood); assay type: cell-based; settings: Streptococcus agalactiae, 34 clinical isolates
Description: as §4

S. pyogenes = test: as above; assay type: cell-based; settings: Streptococcus pyogenes, 33 clinical isolates
Description: as §4

[1] = system: streptococci groups C, F, and G; test: as above; assay type: cell-based, Streptococcus Group C, Group F, Group G; settings: for MIC Range: range for all strains tested
Description: as §4

Citrobacter freundii = test: MIC, modified CLSI broth microdilution; assay type: cell-based; settings: 20 clinical isolates
Description: (§5) All clinical isolates were obtained from the culture collection of Eurofins Medinet Anti-Infective Services (Herndon, Va.), and represent diverse geographical regions. […] Escherichia coli ATCC 25922, Staphylococcus aureus ATCC 25923, S. aureus ATCC 29213, Pseudomonas aeruginosa ATCC 27853, and Enterococcus faecalis ATCC 29212 were used as quality control strains for the Enhanced MPO Solution and comparator agents to validate the modified Clinical and Laboratory Standards Institute (CLSI, formally NCCLS) broth microdilution method.
(§6) Modifications were made to the standard broth microdilution method to accommodate the rapid in vitro activity of the Enhanced MPO Solution as described below. Each antimicrobial agent and Concentrate solution was diluted in double strength cation-adjusted Mueller-Hinton Broth (CAMHB) and dispensed in mircrodilution trays. All β-hemolytic streptococci were tested in double strength CAMHB supplemented with 5% lysed horse blood. Isolates were prepared by suspending several colonies (four to six) from an overnight culture on Trypticase Soy Agar (TSA) with 5% sheep blood into sterile saline and the density adjusted to a 0.5 McFarland standard (˜10^8 CFU/ml). Standardized bacterial suspensions were further diluted in double strength Diluent solution so that approximately 5×10^5 CFU/ml was mixed with serial drug dilutions. […]

Enterobacter cloacae = test: MIC, modified CLSI broth microdilution; assay type: cell-based; settings: 21 clinical isolates
Description: as §5, §6

Klebsiella pneumoniae = test: MIC, modified CLSI broth microdilution; assay type: cell-based; settings: 31 clinical isolates
Description: as §5, §6

Proteus mirabilis = test: MIC, modified CLSI broth microdilution; assay type: cell-based; settings: 24 clinical isolates
Description: as §5, §6

Acinetobacter species = test: MIC, modified CLSI broth microdilution; assay type: cell-based; settings: Acintobacter spp., 29 clinical isolates
Description: as §5, §6

P. aeruginosa = test: MIC, modified CLSI broth microdilution; assay type: cell-based; settings: Pseudomonas aeruginosa, 53 clinical isolates
Description: as §4

Aeromonas hydrophilia = test: MIC, modified CLSI broth microdilution; assay type: cell-based; settings: 5 clinical isolates, range for all strains tested
Description: as §4

Pasteurella multocida = test: MIC, modified CLSI broth microdilution; assay type: cell-based; settings: 5 clinical isolates, range for all strains tested
Description: as §4

[2] = Enterococcus faecalis, 33 clinical isolates
[3] = Staphylococcus aureus, 109 clinical isolates
[4] = Staphylococcus epidermidis, 31 clinical isolates
[5] = Streptococcus Group G, 18 clinical isolates
[6] = Escherichia coli, 52 clinical isolates

Cc1nnc(SCC2=C(C(=O)O)N3C(=O)[C@@H](NC(=O)Cn4cnnn4)[C@H]3SC2)s1 [cefazolin]
MIC by the modified method versus published quality control ranges (S. aureus): within previously published quality control ranges
MIC by the modified method versus published quality control ranges (E. coli): within previously published quality control ranges

C/C(=C\C(=O)OCCCCCCCCC(=O)O)C[C@@H]1OC[C@H](C[C@@H]2O[C@H]2[C@@H](C)[C@H](C)O)[C@@H](O)[C@H]1O [mupirocin]
MIC50 (E. faecalis; [2]): 32 µg/mL (≈ 63.9 µM)
MIC90 (E. faecalis; [2]): > 32 µg/mL
MIC range, upper end (E. faecalis; clinical isolates): > 32 µg/mL
MIC50 (E. faecium): 0.25 µg/mL (≈ 0.499 µM)
MIC90 (E. faecium): 0.25 µg/mL (≈ 0.499 µM)
MIC Range (E. faecium; range for all strains tested): 0.06 to 0.5 µg/mL
MIC by the modified method versus published quality control ranges (S. aureus): within previously published quality control ranges
MIC50 (S. aureus; [3]): 0.06 µg/mL (≈ 0.12 µM)
MIC90 (S. aureus; [3]): 0.12 µg/mL (≈ 0.24 µM)
MIC range, upper end (S. aureus; clinical isolates): > 32 µg/mL
MIC50 (S. epidermidis; [4]): 0.12 µg/mL (≈ 0.24 µM)
MIC90 (S. epidermidis; [4]): > 32 µg/mL
MIC range, upper end (S. epidermidis; clinical isolates): > 32 µg/mL
MIC50 (S. agalactiae): 0.5 µg/mL (≈ 0.999 µM)
MIC90 (S. agalactiae): 0.5 µg/mL (≈ 0.999 µM)
MIC Range (S. agalactiae; range for all strains tested): 0.12 to 2 µg/mL
MIC50 (S. pyogenes): 0.12 µg/mL (≈ 0.24 µM)
MIC90 (S. pyogenes): 0.25 µg/mL (≈ 0.499 µM)
MIC Range (S. pyogenes; range for all strains tested): 0.06 to 0.5 µg/mL
MIC Range ([1]; Streptococcus Group C, 8 clinical isolates): 0.06 to 0.5 µg/mL
MIC Range ([1]; Streptococcus Group F, 2 clinical isolates): 0.25-0.25 μg/ml
MIC50 [1, 5]: 0.12 µg/mL (≈ 0.24 µM)
MIC90 [1, 5]: 0.12 µg/mL (≈ 0.24 µM)
MIC Range [1, 5]: 0.06 to 0.5 µg/mL

gentamicin
MIC 50% (Citrobacter freundii): 2 µg/mL
MIC 90% (Citrobacter freundii): 4 µg/mL
MIC 50% (Enterobacter cloacae): 2 µg/mL
MIC 90% (Enterobacter cloacae): 8 µg/mL
MIC by the modified method versus published quality control ranges (E. coli): within previously published quality control ranges
MIC 50% (E. coli; [6]): 4 µg/mL
MIC 90% (E. coli; [6]): >32 µg/mL
MIC 50% (Klebsiella pneumoniae): 4 µg/mL
MIC 90% (Klebsiella pneumoniae): >32 µg/mL
MIC 50% (Proteus mirabilis): 8 µg/mL
MIC 90% (Proteus mirabilis): 8 µg/mL
MIC 50% (Acinetobacter species): 8 µg/mL
MIC 90% (Acinetobacter species): >32 µg/mL
MIC 50% (P. aeruginosa): 4 µg/mL
MIC 90% (P. aeruginosa): 16 µg/mL
MIC Range (Aeromonas hydrophilia): 1 to 4 µg/mL
MIC Range (Pasteurella multocida): 2 to 16 µg/mL

Reference: patent publication US8945540B2, “Compositions for enhancing the antibacterial activity of myeloperoxidase and methods of use thereof” (Exoxemis, Inc., priority 2008, dated 2015)
